# What was measured:
# [1] = tested on: Purified human cord blood CD34+ cells; test: Monocyte production: CD34/CD14 staining of cord blood CD34+ cells cultured 14 days with cytokines; assay type: cell-based
# Procedure: Purified human cord blood CD34+ cells (greater than 90% CD34+) were cultured in 20% FCS IMDM medium supplemented with cytokines (IL3, IL6, G-CSF, KL and Epo) at 4×10^4 cells/ml for 14 days at 37° C. in a humidified 5% CO2 incubator. The experimental groups consisted of a group in which (i) no DMSO or chemical compounds were added (“None”), (ii) DMSO only, (iii) Thalidomide dissolved in DMSO, (iv) ACTIMID™ dissolved in DMSO, and (v) REVIMID™ dissolved in DMSO. Aliquots of cells were harvested and stained with CD34-PE conjugated monoclonal antibody and CD14-FITC conjugated monoclonal antibody.
# [2] = tested on: Cord blood CD34+ hematopoietic progenitor cells; test: Colony forming unit (CFU) generation from cord blood CD34+ cells; assay type: cell-based, human; settings: IL-3, G-CSF, kit-ligand, vs DMSO
# Procedure: FIG. 1. Bar graph indicating results of culturing cord blood CD34+ cells in the presence of Thalidomide (THD), ACTIMID™, and REVIMID™ at concentrations of 1 μg/ml and 10 μg/ml. An equal volume of DMSO was used as a negative control. Hematopoietic colonies of burst forming units-erythroid (BFU-E), colony forming units-erythroid (CFU-E), colony forming units-granulocyte macrophage (CFU-GM) and total numbers of colonies (CFU-Total) were scored under the light microscope at day 14 of culture. Y-axis: numbers of colonies. See Section 6.1 for details.
# Cord blood CD34+ hematopoietic progenitor cells were plated in 96 well cultivation dishes at a density of 1000 cells per well in IMDM supplemented with 20% fetal calf serum and cytokines (IL-3, G-CSF and kit-ligand (R&D Systems, Inc.) The cells were exposed to Thalidomide (Thal), ACTIMID™ and REVIMID™, or DMSO (a control compound), and allowed to culture for 6 days. […] After culturing, cells were stained and sorted with a fluorescence activated. cell sorter (FACS). 400 μL of stained cells were harvested and diluted to 1.0 ml with 1% fetal calf serum in phosphate buffered saline (PBS). Cells were counted to determine the effect of modulation of stem cell differentiation.
# [3] = tested on: Human Cord Blood CD34+ Cells; test: FACS analysis of proliferation and differentiation of cord blood CD34+ cells cultured with IL3, G-CSF and Kit-ligand; assay type: cell-based; settings: for CD11b+ Cell Population / CD34+CD38+ Cell Population / CD34+CD38− Cell Population: 7 days
# Procedure: CB CD34+ cells were initiated at 4×10^4 cells/ml in a 24-well plate in 20% FCS IMDM (fetal calf serum/Iscove's Modified Dulbecco's Medium) supplemented with cytokines (1 L3, GCSF and Kit-ligand) (R&D Systems, Inc.). Thalidomide (Thal), ACTIMID™ or REVIMID™ were included in the culture at three different concentrations: 5 μg/ml, 1 μg/ml and 0.3 μg/ml. The same volumes of DMSO were used as controls. A negative control without, any compound was also used (indicated by “none” in FIGS. 3-7). Cells were cultured at 37° C. and 5% CO2 in a humidified incubator for 7 days. Cells were then harvested from each well.
# The total cell number from each well was determined by counting in a CELL-DYN® 1700 (Abbott Diagnostics) and the expression of CXCR4, CD45, CD34, CD38, CD 1 lb and Gly-A expression was analyzed by FACS (fluorescence-activated cell sorting) staining (FIGS. 3-7).
# CB cells from two different donors (CB2276 and CB2417) were cultured, assayed and analyzed separately (Table 1).
# [4] = tested on: Human Cord Blood MNC Cells; test: FACS analysis of cryopreserved and thawed cord blood MNCs after 1 week of culture with cytokines; assay type: cell-based; settings: 5 μg in 1.7 μl DMSO, average +/− SD of three wells
# Procedure: Cord blood MNCs that had been cryopreserved and thawed using standard methods were isolated by standard Ficoll separation method and cultured in 24 well-plate at 0.5×10^6 cells/ml in 20% FCS-IMDM with cytokines (1L6, KL and G-CSF 10 ng/ml each) in triplicates. The experimental groups were None (cytokines only), DMSO (1.7 μl), ACTIMID™ (5.0 μg in 1.7 μl DMSO), REVIMID™ (5 μg in 1.7 μl DMSO). The cultured cells were harvested and analyzed by FACS staining after 1 week of culture. The data are expressed as an average +/− SD from three independent wells.
smiles,measurement,setting,value
"Nc1cccc2c1C(=O)N(C1CCC(=O)NC1=O)C2=O (stereo not drawn) [ACTIMID™, 4-(Amino)-2-(2,6-dioxo(3-piperidyl))-isoindoline-1,3-dione]",percentage of monocyte lineage cells,"[1]; 5 μg/ml, compared to control, FIG. 13",increase
same,percentage of CD34+ cells of the total cells,"[1]; 14 days, IL3, IL6, G-CSF, KL and Epo, compound dissolved in DMSO",18.7%
same,production of monocytes (CD14+ cells),"[1]; 14 days, relative to DMSO-treated group",overcome
same,generation of erythropoietic colonies (BFU-E and CFU-E),[2],suppress
same,generation of leukocyte and platelet forming colonies (CFU-GM),[2],augmenting
same,total colony forming unit (CFU-Total) production,[2],enhancing
same,up-regulation (increased proliferation) of CD34+ cells,[3]; CB2276 and CB2417 cultures,up-regulation
same,expression of CXCR4,[3]; FACS analysis of surface proteins,inhibitory effect
same,yield of cells,"[3]; IL-3, KL and G-CSF, compared with the DMSO control",slightly higher number of cells
same,effect on the proliferation of CD34+ cells,"[3]; IL-3, KL and G-CSF, compared with the negative control (none)",do not have a significant effect
same,CD11b+ Cell Population,"[3]; donor CB2276, 0.3 μg/ml",6.9%
same,CD34+CD38+ Cell Population,"[3]; donor CB2276, 0.3 μg/ml",0.2
same,CD34+CD38− Cell Population,"[3]; donor CB2276, 0.3 μg/ml",5.9
same,CD11b+ Cell Population,"[3]; donor CB2276, 1 μg/ml",3.8%
same,CD34+CD38+ Cell Population,"[3]; donor CB2276, 1 μg/ml",0.2
same,CD34+CD38− Cell Population,"[3]; donor CB2276, 1 μg/ml",15.0
same,CD11b+ Cell Population,"[3]; donor CB2276, 5 μg/ml",1.6%
same,CD34+CD38+ Cell Population,"[3]; donor CB2276, 5 μg/ml",0.2
same,CD34+CD38− Cell Population,"[3]; donor CB2276, 5 μg/ml",17.3
same,CD11b+ Cell Population,"[3]; donor CB2417, 0.3 μg/ml",8.4%
same,CD34+CD38+ Cell Population,"[3]; donor CB2417, 0.3 μg/ml",0.2
same,CD34+CD38− Cell Population,"[3]; donor CB2417, 0.3 μg/ml",5.9
same,CD11b+ Cell Population,"[3]; donor CB2417, 1 μg/ml",3.9%
same,CD34+CD38+ Cell Population,"[3]; donor CB2417, 1 μg/ml",0.8
same,CD34+CD38− Cell Population,"[3]; donor CB2417, 1 μg/ml",12.0
same,CD11b+ Cell Population,"[3]; donor CB2417, 5 μg/ml",2.5%
same,CD34+CD38+ Cell Population,"[3]; donor CB2417, 5 μg/ml",0.1
same,CD34+CD38− Cell Population,"[3]; donor CB2417, 5 μg/ml",14.7
same,CD38 status of the majority of CD34+ and CD34− cells,[3]; treated cell populations,CD38−
same,level of CD11b expression by mean immunofluorescence (MIF),[3]; treated cells,decreased
same,CD34(%),[4],3.31 +/− 0.64%
same,CD34+CD38−(%),[4],1.70 +/− 0.22%
same,CXCR4+CD45+(%),[4],2.9 +/− 0.5%
same,CXCR4+CD45−(%),[4],4.27 +/− 0.23%
same,Total CD34+ cells,[4],7800 +/− 2600
same,Total cells (1 × 10^6),[4],0.223 +/− 0.06 1 × 10^6

# Reference: patent publication US8889411B2, “Modulation of stem and progenitor cell differentiation, assays, and uses thereof” (Anthrogenesis Corporation, priority 2002, dated 2014)
